Drawing on ChEMBL document CHEMBL4814052, “Isatin-derived azoles as new potential antimicrobial agents: Design, synthesis and biological evaluation” (2021), this text covers MIC for 15 compounds.

SMILES strings stand for the structures. Converted amounts (≈) assume the structure as drawn.

The MIC is the lowest concentration found to suppress growth. A low value points to greater potency.

Type in all cases: functional
Assay [1] relates to Acinetobacter baumannii. Put plainly: Antibacterial activity against Acinetobacter baumannii by broth microdilution method.
Assay [2] deals with Staphylococcus aureus. Put plainly: Antibacterial activity against Staphylococcus aureus ATCC 29213 by broth microdilution method. In general terms: In broth dilution the organism is exposed to a series of concentrations in liquid medium.
Assay [3] concerns Pseudomonas aeruginosa. Put plainly: Antibacterial activity against Pseudomonas aeruginosa ATCC 27853 by broth microdilution method.
For assay [4], the system named is Staphylococcus aureus. Put plainly: Antibacterial activity against methicillin resistant Staphylococcus aureus by broth microdilution method.
Assay [5] relates to Staphylococcus aureus. Put plainly: Antibacterial activity against Staphylococcus aureus ATCC 25923 by broth microdilution method.
Assay [6] deals with Escherichia coli. Put plainly: Antibacterial activity against Escherichia coli by broth microdilution method.
Assay [7] has as its system Enterococcus faecalis. Put plainly: Antibacterial activity against Enterococcus faecalis by broth microdilution method.
The test system of assay [8] is Pseudomonas aeruginosa. Put plainly: Antibacterial activity against Pseudomonas aeruginosa by broth microdilution method.
In assay [9] the test system is Staphylococcus aureus. Put plainly: Antibacterial activity against Staphylococcus aureus by broth microdilution method.
Assay [10] concerns Escherichia coli. Put plainly: Antibacterial activity against Escherichia coli ATCC 25922 by broth microdilution method.
Assay [11] concerns Klebsiella pneumoniae. Put plainly: Antibacterial activity against Klebsiella pneumonia by broth microdilution method.

Regarding `O=C1C(O)c2ccccc2N1CCn1cncn1` (stereo not given), the MIC in [1] was 64 µg/mL (≈ 262 µM); in assay [2], 64 µg/mL (≈ 262 µM); in assay [3], 128 µg/mL (≈ 524 µM); in assay [4], 128 µg/mL (≈ 524 µM); in [5], 64 µg/mL (≈ 262 µM); in assay [6] it was 128 µg/mL (≈ 524 µM). Moreover, the minimum inhibitory concentration (MIC) amounted to 128 µg/mL (≈ 524 µM) in assay [7]; 256 µg/mL (≈ 1050 µM) in assay [8]; 128 µg/mL (≈ 524 µM) in [9]; 256 µg/mL (≈ 1050 µM) in assay [10]; 128 µg/mL (≈ 524 µM) in assay [11].

Consider `Cc1cc2ncn(CCN3C(=O)C(=O)c4ccccc43)c2cc1C`, for which the minimum inhibitory concentration (MIC) was found to be 32 µg/mL (≈ 100 µM) in assay [1]; 128 µg/mL (≈ 401 µM) in assay [2]; 256 µg/mL (≈ 802 µM) in [3]; 128 µg/mL (≈ 401 µM) in assay [4]; 256 µg/mL (≈ 802 µM) in [5]; 256 µg/mL (≈ 802 µM) in [6]. In addition, the MIC worked out at 256 µg/mL (≈ 802 µM) in assay [7]; 256 µg/mL (≈ 802 µM) in assay [8]; 256 µg/mL (≈ 802 µM) in assay [9]; 256 µg/mL (≈ 802 µM) in [10]; 128 µg/mL (≈ 401 µM) in assay [11].

Consider `CC(=O)CC1(O)C(=O)N(CCn2cncn2)c2ccccc21` (stereo not given), for which the minimal inhibitory concentration (MIC) in [1], in assay [2], in assay [3], in assay [4], in assay [5] and in assay [6] was 256 µg/mL (≈ 852 µM) throughout. Also, the minimum inhibitory concentration (MIC) was 256 µg/mL (≈ 852 µM) in assay [7]; 256 µg/mL (≈ 852 µM) in assay [8]; 256 µg/mL (≈ 852 µM) in assay [9]; 512 µg/mL (≈ 1700 µM) in assay [10]; 256 µg/mL (≈ 852 µM) in [11].

Regarding `O=C1C(=O)N(CCn2nnc3ccccc32)c2ccccc21`, the MIC was found to be 128 µg/mL (≈ 438 µM) in assay [1]; 256 µg/mL (≈ 876 µM) in assay [2]; 256 µg/mL (≈ 876 µM) in assay [3]; 128 µg/mL (≈ 438 µM) in [4]; 256 µg/mL (≈ 876 µM) in assay [5]; 128 µg/mL (≈ 438 µM) in assay [6]. Moreover, the MIC in assay [7] was 512 µg/mL (≈ 1750 µM); in assay [8] it was 256 µg/mL (≈ 876 µM); in assay [9] it was 256 µg/mL (≈ 876 µM); in [10] it was 128 µg/mL (≈ 438 µM); in [11], 256 µg/mL (≈ 876 µM).

As for `O=C(CC1(O)C(=O)N(CCn2cncn2)c2ccccc21)c1ccccc1` (stereo not given), the MIC in [1] was 64 µg/mL (≈ 177 µM); in assay [2], 256 µg/mL (≈ 706 µM); in assay [3] it was 512 µg/mL (≈ 1410 µM); in assay [4], 128 µg/mL (≈ 353 µM); in assay [5] it was 256 µg/mL (≈ 706 µM); in [6], 256 µg/mL (≈ 706 µM). Besides, the MIC in [7] was 256 µg/mL (≈ 706 µM); in [8], 512 µg/mL (≈ 1410 µM); in assay [9] it was 128 µg/mL (≈ 353 µM); in [10] it was 512 µg/mL (≈ 1410 µM); in assay [11] it was 256 µg/mL (≈ 706 µM).

`O=C(CC1(O)C(=O)N(CCn2cncn2)c2ccccc21)c1ccc(O)cc1` (stereo not given): the MIC in [1] came out at 512 µg/mL (≈ 1350 µM); in assay [2], 256 µg/mL (≈ 677 µM); in assay [3], 256 µg/mL (≈ 677 µM); in assay [4], 256 µg/mL (≈ 677 µM); in assay [5], 256 µg/mL (≈ 677 µM); in assay [6], 256 µg/mL (≈ 677 µM). The MIC in [7], in [8], in assay [9], in [10] and in assay [11] was 256 µg/mL (≈ 677 µM) throughout.

For `CCCc1nccn1CCN1C(=O)C(=O)c2ccccc21`, the MIC worked out at 32 µg/mL (≈ 113 µM) in assay [1]; 16 µg/mL (≈ 56.5 µM) in [2]; 256 µg/mL (≈ 904 µM) in [3]; 128 µg/mL (≈ 452 µM) in [4]; 256 µg/mL (≈ 904 µM) in [5]; 64 µg/mL (≈ 226 µM) in assay [6]. Moreover, the MIC in assay [7] was 128 µg/mL (≈ 452 µM); in assay [8], 128 µg/mL (≈ 452 µM); in assay [9] it was 64 µg/mL (≈ 226 µM); in [10], 64 µg/mL (≈ 226 µM); in assay [11] it was 128 µg/mL (≈ 452 µM).

As to `Cc1ccc(C(=O)/C=C2\C(=O)N(CCn3cncn3)c3ccccc32)cc1`, the minimum inhibitory concentration (MIC) was 32 µg/mL (≈ 89.3 µM) in assay [1]; 256 µg/mL (≈ 714 µM) in assay [2]; 512 µg/mL (≈ 1430 µM) in assay [3]; 128 µg/mL (≈ 357 µM) in assay [4]; 8 µg/mL (≈ 22.3 µM) in assay [5]; 64 µg/mL (≈ 179 µM) in assay [6]. Moreover, the MIC was 256 µg/mL (≈ 714 µM) in [7]; 128 µg/mL (≈ 357 µM) in assay [8]; 64 µg/mL (≈ 179 µM) in assay [9]; 256 µg/mL (≈ 714 µM) in assay [10]; 256 µg/mL (≈ 714 µM) in [11].

`O=C1C(=O)N(CCn2cnc3ccccc32)c2ccccc21`: the MIC in assay [1] was 128 µg/mL (≈ 439 µM); in assay [2], 256 µg/mL (≈ 879 µM); in [3] it was 256 µg/mL (≈ 879 µM); in [4] it was 256 µg/mL (≈ 879 µM); in assay [5] it was 256 µg/mL (≈ 879 µM); in assay [6] it was 256 µg/mL (≈ 879 µM). The MIC came to 256 µg/mL (≈ 879 µM) in assay [7]; 512 µg/mL (≈ 1760 µM) in assay [8]; 64 µg/mL (≈ 220 µM) in assay [9]; 256 µg/mL (≈ 879 µM) in [10]; 128 µg/mL (≈ 439 µM) in assay [11].

Turning to `Cc1nccn1CCN1C(=O)C(=O)c2ccccc21`, the minimal inhibitory concentration (MIC) was 32 µg/mL (≈ 125 µM) in [1]; 256 µg/mL (≈ 1000 µM) in assay [2]; 128 µg/mL (≈ 501 µM) in assay [3]; 128 µg/mL (≈ 501 µM) in assay [4]; 128 µg/mL (≈ 501 µM) in assay [5]; 256 µg/mL (≈ 1000 µM) in [6]. Moreover, the MIC in assay [7] is 128 µg/mL (≈ 501 µM); in [8] it was 128 µg/mL (≈ 501 µM); in [9], 128 µg/mL (≈ 501 µM); in [10], 128 µg/mL (≈ 501 µM); in assay [11], 64 µg/mL (≈ 251 µM).

On to `O=C(/C=C1\C(=O)N(CCn2cncn2)c2ccccc21)c1ccc(O)cc1`, for which the MIC is 64 µg/mL (≈ 178 µM) in assay [1]; 32 µg/mL (≈ 88.8 µM) in assay [2]; 256 µg/mL (≈ 710 µM) in [3]; 256 µg/mL (≈ 710 µM) in assay [4]; 128 µg/mL (≈ 355 µM) in [5]; 128 µg/mL (≈ 355 µM) in assay [6]. Further, the MIC worked out at 128 µg/mL (≈ 355 µM) in [7]; 256 µg/mL (≈ 710 µM) in [8]; 128 µg/mL (≈ 355 µM) in assay [9]; 256 µg/mL (≈ 710 µM) in assay [10]; 256 µg/mL (≈ 710 µM) in assay [11].

Consider `Cc1ncc([N+](=O)[O-])n1CCN1C(=O)C(=O)c2ccccc21`, for which the MIC was 128 µg/mL (≈ 426 µM) in assay [1]; 128 µg/mL (≈ 426 µM) in assay [2]; 256 µg/mL (≈ 853 µM) in assay [3]; 128 µg/mL (≈ 426 µM) in assay [4]; 256 µg/mL (≈ 853 µM) in assay [5]; 128 µg/mL (≈ 426 µM) in assay [6]. Moreover, the MIC in [7] is 128 µg/mL (≈ 426 µM); in [8] it was 64 µg/mL (≈ 213 µM); in assay [9], 128 µg/mL (≈ 426 µM); in assay [10], 128 µg/mL (≈ 426 µM); in [11], 64 µg/mL (≈ 213 µM).

`O=C1C(=O)N(CCn2cncn2)c2ccccc21`: the minimum inhibitory concentration (MIC) in [1] worked out at 128 µg/mL (≈ 528 µM); in assay [2] it was 32 µg/mL (≈ 132 µM); in assay [3], 64 µg/mL (≈ 264 µM); in assay [4] it was 256 µg/mL (≈ 1060 µM); in assay [5], 128 µg/mL (≈ 528 µM); in assay [6], 32 µg/mL (≈ 132 µM). Besides, the minimal inhibitory concentration (MIC) in assay [7] came out at 128 µg/mL (≈ 528 µM); in [8], 128 µg/mL (≈ 528 µM); in assay [9] it was 128 µg/mL (≈ 528 µM); in [10], 8 µg/mL (≈ 33 µM); in assay [11], 128 µg/mL (≈ 528 µM).

As for `O=C1C(=O)N(CCn2cnc([N+](=O)[O-])c2)c2ccccc21`, the MIC in [1] was determined as 32 µg/mL (≈ 112 µM); in assay [2] it was 32 µg/mL (≈ 112 µM); in assay [3] it was 256 µg/mL (≈ 894 µM); in [4] it was 256 µg/mL (≈ 894 µM); in [5], 64 µg/mL (≈ 224 µM); in assay [6], 128 µg/mL (≈ 447 µM). In addition, the MIC in [7] came to 128 µg/mL (≈ 447 µM); in assay [8], 64 µg/mL (≈ 224 µM); in [9] it was 128 µg/mL (≈ 447 µM); in [10] it was 64 µg/mL (≈ 224 µM); in [11], 64 µg/mL (≈ 224 µM).

With `Cc1ccc(C(=O)CC2(O)C(=O)N(CCn3cncn3)c3ccccc32)cc1` (stereo not given), the MIC in assay [1] stood at 128 µg/mL (≈ 340 µM); in assay [2] it was 128 µg/mL (≈ 340 µM); in [3] it was 256 µg/mL (≈ 680 µM); in assay [4] it was 256 µg/mL (≈ 680 µM); in assay [5], 256 µg/mL (≈ 680 µM); in [6] it was 128 µg/mL (≈ 340 µM). Moreover, the MIC in assay [7] was found to be 128 µg/mL (≈ 340 µM); in assay [8], 512 µg/mL (≈ 1360 µM); in assay [9], 256 µg/mL (≈ 680 µM); in [10] it was 512 µg/mL (≈ 1360 µM); in [11], 256 µg/mL (≈ 680 µM).
